Laboratory results taken from ChEMBL document CHEMBL1201862, “PubChem BioAssay data set” (2004).
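Five concentrations, 48 hours, 96-well plates. Here, GI50 denotes the concentration required for 50% inhibition of growth.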 The source made the active and inactive calls. No stated cut-off is given here; in the data, active = GI50 up to about 1.1 µM and inactive = higher.

Columns and labels:
Test in all cases: NCI-60 cell line screen, 48 h
SF-539 = system: SF-539
SNB-19 = system: SNB-19
CCRF-CEM = system: CCRF-CEM
SN12C = system: SN12C
XF498 = system: XF498
KM-20L2 = system: KM-20L2
SW-620 = system: SW-620
OVCAR-5 = system: OVCAR-5
LXFL 529 = system: LXFL 529
DMS-114 = system: DMS-114
UACC-62 = system: UACC-62
A549 = system: A549
SF-295 = system: SF-295
U-251 = system: U-251
OVCAR-3 = system: OVCAR-3
SNB-75 = system: SNB-75
SNB-78 = system: SNB-78
DLD-1 = system: DLD-1
HT-29 = system: HT-29
NCI-H23 = system: NCI-H23
IGROV-1 = system: IGROV-1
DMS-273 = system: DMS-273
HCT-15 = system: HCT-15
SK-MEL-28 = system: SK-MEL-28
K562 = system: K562
Malme-3M = system: Malme-3M
786-0 = system: 786-0
RXF 631 = system: RXF 631
SF-268 = system: SF-268
M19-MEL = system: M19-MEL
CAKI-1 = system: CAKI-1
OVCAR-8 = system: OVCAR-8
MOLT-4 = system: MOLT-4
RPMI-8226 = system: RPMI-8226
OVCAR-4 = system: OVCAR-4
M14 = system: M14
HCC 2998 = system: HCC 2998
HOP-62 = system: HOP-62
UACC-257 = system: UACC-257
SK-MEL-2 = system: SK-MEL-2
RXF 393 = system: RXF 393
SK-OV-3 = system: SK-OV-3
TK-10 = system: TK-10
LOX IMVI = system: LOX IMVI
KM12 = system: KM12
HOP-18 = system: HOP-18
UO-31 = system: UO-31
COLO 205 = system: COLO 205
EKVX = system: EKVX
HCT-116 = system: HCT-116
HOP-92 = system: HOP-92
A498 = system: A498
NCI-H460 = system: NCI-H460
SR = system: SR
ACHN = system: ACHN
HL-60 = system: HL-60

## CC(C)(C)c1cc2nc(c1)C(C(F)(F)F)(C(F)(F)F)OB(Br)OC2(C(F)(F)F)C(F)(F)F
SF-539
  GI50: 0.316 µM (active)
SNB-19
  GI50: 0.156 µM (active)
CCRF-CEM
  GI50: < 0.01 µM (active)
SN12C
  GI50: 0.173 µM (active)
XF498
  GI50: 1.04 µM (active)
KM-20L2
  GI50: < 0.01 µM (active)
SW-620
  GI50: < 0.01 µM (active)
OVCAR-5
  GI50: 0.0532 µM (active)
LXFL 529
  GI50: 0.261 µM (active)
DMS-114
  GI50: < 0.01 µM (active)
UACC-62
  GI50: 0.0176 µM (active)
A549
  GI50: < 0.01 µM (active)
SF-295
  GI50: 0.0834 µM (active)
U-251
  GI50: 0.084 µM (active)
OVCAR-3
  GI50: < 0.01 µM (active)
SNB-75
  GI50: 3.56 µM (inactive)
SNB-78
  GI50: 0.12 µM (active)
DLD-1
  GI50: 0.0248 µM (active)
HT-29
  GI50: 0.156 µM (active)
NCI-H23
  GI50: 4.47 µM (inactive)
IGROV-1
  GI50: 0.0269 µM (active)
DMS-273
  GI50: < 0.01 µM (active)
HCT-15
  GI50: 0.0299 µM
SK-MEL-28
  GI50: 4.8 µM (inactive)
K562
  GI50: 0.0434 µM (active)
Malme-3M
  GI50: 0.617 µM (active)
786-0
  GI50: 0.115 µM (active)
RXF 631
  GI50: 0.0836 µM (active)
SF-268
  GI50: 3.01 µM (inactive)
M19-MEL
  GI50: 0.0268 µM (active)
CAKI-1
  GI50: 0.0414 µM (active)
OVCAR-8
  GI50: < 0.01 µM (active)
MOLT-4
  GI50: < 0.01 µM (active)
RPMI-8226
  GI50: 0.0607 µM (active)
OVCAR-4
  GI50: < 0.01 µM (active)
M14
  GI50: 0.0209 µM (active)
HCC 2998
  GI50: 0.233 µM (active)
HOP-62
  GI50: 0.0367 µM (active)
UACC-257
  GI50: < 0.01 µM (active)
SK-MEL-2
  GI50: 1.47 µM (inactive)
RXF 393
  GI50: 10 µM (inactive)
SK-OV-3
  GI50: 1.3 µM (inactive)
TK-10
  GI50: 0.0802 µM (active)
LOX IMVI
  GI50: 0.0378 µM (active)
KM12
  GI50: < 0.01 µM (active)
HOP-18
  GI50: < 0.01 µM (active)
UO-31
  GI50: 0.292 µM (active)
COLO 205
  GI50: < 0.01 µM (active)
EKVX
  GI50: < 0.01 µM (active)

## COc1c(CC(C)=O)c2ccccc2n1C(C)=O
SF-539
  GI50: > 100 µM (inactive)
SNB-19
  GI50: > 100 µM (inactive)
CCRF-CEM
  GI50: > 100 µM (inactive)
SN12C
  GI50: > 100 µM (inactive)
XF498
  GI50: > 100 µM (inactive)
KM-20L2
  GI50: > 100 µM (inactive)
SW-620
  GI50: > 100 µM (inactive)
LXFL 529
  GI50: > 100 µM (inactive)
UACC-62
  GI50: > 100 µM (inactive)
A549
  GI50: > 100 µM (inactive)
SF-295
  GI50: > 100 µM (inactive)
U-251
  GI50: > 100 µM (inactive)
OVCAR-3
  GI50: > 100 µM (inactive)
SNB-75
  GI50: > 100 µM (inactive)
SNB-78
  GI50: > 100 µM (inactive)
DLD-1
  GI50: > 100 µM (inactive)
HCT-116
  GI50: > 100 µM (inactive)
HT-29
  GI50: > 100 µM (inactive)
NCI-H23
  GI50: > 100 µM (inactive)
IGROV-1
  GI50: > 100 µM (inactive)
DMS-273
  GI50: > 100 µM (inactive)
HCT-15
  GI50: > 100 µM
SK-MEL-28
  GI50: > 100 µM (inactive)
K562
  GI50: > 100 µM (inactive)
786-0
  GI50: > 100 µM (inactive)
RXF 631
  GI50: > 100 µM (inactive)
M19-MEL
  GI50: > 100 µM (inactive)
CAKI-1
  GI50: > 100 µM (inactive)
OVCAR-8
  GI50: > 100 µM (inactive)
HOP-92
  GI50: > 100 µM (inactive)
MOLT-4
  GI50: > 100 µM (inactive)
RPMI-8226
  GI50: > 100 µM (inactive)
A498
  GI50: > 100 µM (inactive)
OVCAR-4
  GI50: > 100 µM (inactive)
NCI-H460
  GI50: > 100 µM (inactive)
M14
  GI50: > 100 µM (inactive)
HCC 2998
  GI50: > 100 µM (inactive)
HOP-62
  GI50: > 100 µM (inactive)
UACC-257
  GI50: > 100 µM (inactive)
SK-MEL-2
  GI50: > 100 µM (inactive)
RXF 393
  GI50: > 100 µM (inactive)
SK-OV-3
  GI50: > 100 µM (inactive)
KM12
  GI50: > 100 µM (inactive)
HOP-18
  GI50: > 100 µM (inactive)
UO-31
  GI50: > 100 µM (inactive)
SR
  GI50: > 100 µM (inactive)
COLO 205
  GI50: > 100 µM (inactive)
ACHN
  GI50: > 100 µM (inactive)
HL-60
  GI50: > 100 µM (inactive)
EKVX
  GI50: > 100 µM (inactive)
